The source of these data is publication PMC8942544, “Design and synthesis of benzodiazepines as brain penetrating PARP-1 inhibitors” (Journal of Enzyme Inhibition and Medicinal Chemistry, 2022).

The target in series [1] is T1, PARP-1 (Homo sapiens, UniProt P09874).
T1 construct: purchased BPS Bioscience 80580
Description: PARP-1 enzyme inhibition assay (BPS Bioscience PARP Colorimetric Assay Kit). Format: biochemical. The conditions noted are these: for inhibition at 0.05 µM: compound concentration 50 nM, three independent tests. As to the method:
All target compounds were evaluated for PARP-1 enzyme inhibition activity at the concentration of 50 nM determined by previous pre-experiments.
The ability of the compounds to inhibit PARP-1 enzyme activity was assessed using BPS Bioscience's PARP Colorimetric Assay Kit (BPS Bioscience, Catalog # 80580). PARP-1 is known to catalyse the NAD-dependent addition of poly(ADP-ribose) to histones. The PARP-1 assay kit comes in a convenient 96-well format, with purified PARP-1 enzyme, histone mixture, activated DNA, and PARP-1 assay buffer. The key to the PARP-1 Colorimetric Activity Assay is the biotinylated substrate. With this kit, only three simple steps are required for PARP-1 reactions. First, histone proteins are coated on a 96-well plate. Next, the PARP-1 biotinylated substrate is incubated with an assay buffer that contains the PARP-1 enzyme. Finally, the plate is treated with streptavidin-HRP followed by the addition of the colorimetric HRP substrate to produce colour that can then be measured using a UV/Vis spectrophotometer microplate reader. IC50 values were calculated using GraphPad Prism5 software.

For series [2], the target named is PARP-2 (Homo sapiens, UniProt Q9UGN5). In words: PARP-2 enzyme inhibition (IC50). Format: biochemical. The source says: PARP-2 is the closest homolog of PARP-1, which also resides in the nucleus and functions similarly to PARP-1.
Series [3] can be described thus: Brain/plasma pharmacokinetic study in vivo. The conditions noted are these: mouse, intravenous, ICR mice; for concentration at 5 min / Kp at 5 min: 5 min after tail vein injection of 1.5 mg/kg; for concentration at 60 min / Kp at 60 min: 60 min after tail vein injection of 1.5 mg/kg. As for the experimental part: Further, the brain permeability of representative compounds was evaluated in ICR mice. After tail vein injection of a 1.5 mg/kg dose, the concentrations of the compounds in the brain and plasma were measured after 5 min and 60 min of administration, and the brain/plasma (B/P) ratio was calculated. […] On the contrary, compounds H42 and H52 performed high B/P ratios, which were consistent with our initial expectations. Among them, the B/P ratio of H42 reached balance rapidly in vivo and maintained above 3, while the proportion of H52 in the brain increased gradually and reached 4.41 at 60 min.
All animal experiments were complied with the ARRIVE guidelines and were carried out in accordance with the U.K. Animals Act, 1986 and associated guidelines. The ICR mice were used in plasma–brain distribution assay of compounds. After tail vein injection of a 1.5 mg/kg dose, the concentrations of the compounds in the brain and plasma were measured after 5 min and 60 min of administration, and the brain/plasma (B/P) ratio was calculated. The samples of plasma and brain tissue were prepared as previously reported. An established LC-MS/MS method was used for determining the concentration of representative compounds in plasma and brain tissue.

Series [4] can be described thus: in vitro. The note with it: dog, MDCK.
The subject of series [5] is A549 cells. Description: MTT antiproliferation assay, A549 cells. Format: cell-based. The conditions noted are these: Homo sapiens, lung cancer cell line, 48 h. As for the experimental part:
(§1) Due to their acceptable inhibition rates (more than 50%) at the concentration of 50 nM, compounds H34, H42, H48, H50, and H52 were selected to evaluate the proliferation inhibition activity on several cancer cells, including BRCA1 mutant tumour cells (MX-1) and BRCA1 wild type tumour cells (MCF7 and A549).
(§2) The MTT assay was performed to detect the sensitivity of cells to anticancer drugs in vitro. The human A549, MCF7, and U87 tumour cells, as well as human BRCA mutant tumour cells (MX-1), were tested in this study. The cell culture was carried out in accordance with routine operations or instructions. Briefly, 5,000 cells were seeded in each well of a 96-well plate. After cell attachment to the bottom of the well, different concentrations of tested compounds were added into designated wells. After 48 h of incubation, 20 µL of MTT solution (5 mg/mL) were added to each well for cell staining. After 4 h, the media were removed and 150 µL of DMSO were added to each well. Finally, the absorbance was determined at 570 nm using a multifunctional microplate reader (TECAN).

In series [6] the test system is MX-1 (BRCA1 mutant tumour cells). In words: MTT antiproliferation assay, MX-1 cells. In kind it is cell-based. The note with it: Homo sapiens, MX1, breast cancer cell line, 48 h. As for the experimental part: as §1, §2
The test system of series [7] is MDCK cells monolayer model. The note with it: dog, 3 h, 10 µM.
Series [8] relates to MCF7 cells. Description: MTT antiproliferation assay, MCF7 cells. In kind it is cell-based. The note with it: Homo sapiens, breast cancer cell line, 48 h. As to the method:
as §1, §2
For orientation: Formazan colour is commonly taken as a measure of viable cells.

In series [9] the test system is glioblastoma (U87) cells. In words: Antiproliferation in combination with TMZ, U87 cells. Format: cell-based, human. The conditions noted are these: combination with Temozolomide. As to the method:
as §2

For series [10] the following is noted: cited from earlier work.
[11] abbreviates: brain/plasma, read-out: B/P ratio.

SMILES strings stand for the structures. Entries after “also recorded” stand apart in the source; their conditions may differ. Read-outs that look alike come from different tables or passages of the source. A value given as a limit tells only on which side of the number the result lay.

Chain of PARP-2 (Q9UGN5 whole entry): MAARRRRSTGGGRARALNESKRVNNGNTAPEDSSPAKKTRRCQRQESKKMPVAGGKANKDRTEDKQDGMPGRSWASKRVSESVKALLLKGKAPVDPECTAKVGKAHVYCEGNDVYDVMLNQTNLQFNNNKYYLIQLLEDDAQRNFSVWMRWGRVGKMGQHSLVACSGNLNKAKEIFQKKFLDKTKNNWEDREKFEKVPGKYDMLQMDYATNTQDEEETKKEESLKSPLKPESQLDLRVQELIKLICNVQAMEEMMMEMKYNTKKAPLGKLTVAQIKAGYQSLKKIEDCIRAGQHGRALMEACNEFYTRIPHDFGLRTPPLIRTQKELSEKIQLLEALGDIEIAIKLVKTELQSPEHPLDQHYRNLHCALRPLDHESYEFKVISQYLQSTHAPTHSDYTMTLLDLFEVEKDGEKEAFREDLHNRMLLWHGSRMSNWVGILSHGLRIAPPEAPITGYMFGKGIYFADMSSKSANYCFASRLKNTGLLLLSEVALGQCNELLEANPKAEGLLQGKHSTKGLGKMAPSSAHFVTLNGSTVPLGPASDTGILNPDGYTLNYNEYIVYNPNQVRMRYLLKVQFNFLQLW
T1 sequence (P09874 whole entry): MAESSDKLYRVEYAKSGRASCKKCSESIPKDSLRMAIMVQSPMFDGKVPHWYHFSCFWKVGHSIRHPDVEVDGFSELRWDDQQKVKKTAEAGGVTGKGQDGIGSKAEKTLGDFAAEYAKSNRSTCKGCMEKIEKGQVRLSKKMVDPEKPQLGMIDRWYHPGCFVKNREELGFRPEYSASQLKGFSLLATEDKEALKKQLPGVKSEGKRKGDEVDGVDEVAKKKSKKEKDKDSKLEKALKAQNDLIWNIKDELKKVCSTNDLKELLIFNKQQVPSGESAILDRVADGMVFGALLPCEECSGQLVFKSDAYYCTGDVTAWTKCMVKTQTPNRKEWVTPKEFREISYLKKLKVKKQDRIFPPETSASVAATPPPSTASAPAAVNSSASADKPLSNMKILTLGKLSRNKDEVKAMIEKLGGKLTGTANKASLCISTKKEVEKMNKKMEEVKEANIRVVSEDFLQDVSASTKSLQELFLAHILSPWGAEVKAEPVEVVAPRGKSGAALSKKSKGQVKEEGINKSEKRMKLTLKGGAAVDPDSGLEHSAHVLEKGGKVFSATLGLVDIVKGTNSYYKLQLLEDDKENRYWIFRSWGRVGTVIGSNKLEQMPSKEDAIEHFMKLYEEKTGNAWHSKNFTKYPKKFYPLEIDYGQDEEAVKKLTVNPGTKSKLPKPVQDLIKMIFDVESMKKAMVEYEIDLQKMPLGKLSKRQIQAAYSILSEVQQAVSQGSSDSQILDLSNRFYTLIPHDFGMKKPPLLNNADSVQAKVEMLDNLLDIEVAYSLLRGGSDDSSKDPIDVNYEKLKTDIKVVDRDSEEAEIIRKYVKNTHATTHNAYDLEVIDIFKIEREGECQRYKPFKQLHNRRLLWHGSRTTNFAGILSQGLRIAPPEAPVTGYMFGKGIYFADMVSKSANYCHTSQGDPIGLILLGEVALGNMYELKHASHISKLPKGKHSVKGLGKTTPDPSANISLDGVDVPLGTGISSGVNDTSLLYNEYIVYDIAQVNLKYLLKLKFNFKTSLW

In general, IC50 refers to the concentration that inhibits the measured activity by half. A low value points to inhibition by little substance. One may read the inhibition as the percentage by which the read-out fell short of the control. Lower therefore signals a response near the control. As usually defined, the Papp A→B is the apparent permeability from the apical to the basolateral side of a cell layer. As to `Cc1n[nH]c(C)c1-c1ccc(C2=Nc3ccccc3C(=O)NC2)cc1` [Compound H34, 2-(4-(3,5-Dimethyl-1H-pyrazol-4-yl)phenyl)-3,4-dihydro-5H-benzo[e][1,4]diazepin-5-one], the IC50 amounted to 0.0414 µM in series [1]; 0.0512 µM in [2]; 121 ± 16.2 µM in [5]; 40.3 ± 3.3 µM in series [6]; 44.3 ± 5.2 µM in series [8]. Also, the inhibition at 0.05 µM in series [1] was greater than 50%. For the same compound, the concentration at 5 min in series [3] (brain, read-out: Brain) was 301 ± 52.5 ng/g; in series [3] (plasma, read-out: Plasma), 3120 ± 220 ng/mL. Besides, the concentration at 60 min is 9.67 ± 8.75 ng/g in series [3] (brain, read-out: Brain) and 1050 ± 70.3 ng/mL in [3] (plasma, read-out: Plasma). The Kp at 5 min in series [3] (setting [11]) stood at 0.1 ± 0.01. For the same compound, in [3] (setting [11]), the Kp at 60 min amounted to 0.01 ± 0.01. For the same compound, the Papp A→B at 3 h, 10 µM in [4] came to 15.7 ± 1.32 ×10⁻⁶ cm/s. The compound also displayed a Capical in [7] of 1.65 ± 0.32 µg/mL. The Cbasolateral in [7] came out at 0.31 ± 0.08 µg/mL.

With `COc1ccc(-c2ccc(C3=Nc4ccccc4C(=O)NC3)cc2)cc1` [Compound H42, 2-(4′-Methoxy-[1,1′-biphenyl]-4-yl)-3,4-dihydro-5H-benzo[e][1,4]diazepin-5-one], in [9], the “Sensitisation effect in combination with TMZ” value is reported as “significant sensitisation effects”. Also, the IC50 in series [1] worked out at 0.0403 µM; in series [2], 0.0471 µM; in series [5] it was 162 ± 18.4 µM; in [6], 31.4 ± 2.8 µM; in series [8], 39.4 ± 4.2 µM. Besides, in series [1], the inhibition at 0.05 µM was greater than 50%. In addition, the concentration at 5 min is 1820 ± 324 ng/g in series [3] (brain, read-out: Brain) and 555 ± 104 ng/mL in series [3] (plasma, read-out: Plasma). The concentration at 60 min is 51.8 ± 13.6 ng/g in series [3] (brain, read-out: Brain) and 15.1 ± 5.44 ng/mL in [3] (plasma, read-out: Plasma). Further, in series [3] (setting [11]), the Kp at 5 min was found to be 3.28 ± 0.28. Besides, in series [3] (setting [11]), the Kp at 60 min stood at 3.58 ± 0.53. Also, in series [3] (brain/plasma, maintained over 5 and 60 min, 1.5 mg/kg tail vein, read-out: B/P ratio), the Kp is greater than 3. Besides, the Papp A→B at 3 h, 10 µM in series [4] is 16.1 ± 1.08 ×10⁻⁶ cm/s. In series [7], this compound yielded a Capical of 1.62 ± 0.37 µg/mL. Also, in series [7], the Cbasolateral is 0.33 ± 0.05 µg/mL.

In [1], `O=C1NCC(c2ccc(-c3ccc4[nH]c5ccccc5c4c3)cc2)=Nc2ccccc21` [Compound H46, 2-(4-(9H-carbazol-3-yl)phenyl)-3,4-dihydro-5H-benzo[e][1,4]diazepin-5-one] had an inhibition at 0.05 µM of 14.9 ± 8.2%.

`Nc1cccc(-c2ccc(C3CNC(=O)c4ccccc4N3)cc2)c1` (centres unmarked) [Compound H47, 2-(3′-Amino-[1,1′-biphenyl]-4-yl)-1,2,3,4-tetrahydro-5H-benzo[e][1,4]diazepin-5-one] registered an inhibition at 0.05 µM in series [1] of 48.7 ± 5.7%.

On to `Nc1ccc(-c2ccc(C3CNC(=O)c4ccccc4N3)cc2)cc1` (centres unmarked) [Compound H48, 2-(4′-Amino-[1,1′-biphenyl]-4-yl)-1,2,3,4-tetrahydro-5H-benzo[e][1,4]diazepin-5-one], for which the IC50 in series [1] was 0.0378 µM; in series [2] it was 0.0407 µM; in series [5] it was 176 ± 23.1 µM; in [6] it was 30.7 ± 4 µM; in series [8] it was 35.7 ± 2.9 µM. For the same compound, the inhibition at 0.05 µM in [1] is greater than 50%. For the same compound, the concentration at 5 min is 1050 ± 153 ng/g in [3] (brain, read-out: Brain) and 2650 ± 264 ng/mL in [3] (plasma, read-out: Plasma). Also, the concentration at 60 min came out at 10.1 ± 0.87 ng/g in [3] (brain, read-out: Brain) and 157 ± 32.3 ng/mL in [3] (plasma, read-out: Plasma). Also, the Kp at 5 min in series [3] (setting [11]) was 0.4 ± 0.05. Also, the Kp at 60 min in series [3] (setting [11]) turned out to be 0.07 ± 0.02. Besides, the Papp A→B at 3 h, 10 µM in series [4] is 11.7 ± 0.51 ×10⁻⁶ cm/s. In series [7], this compound came in with a Capical of 2.43 ± 0.42 µg/mL. In series [7], this compound had a Cbasolateral of 0.23 ± 0.06 µg/mL.

With `COc1cccc(-c2ccc(C3CNC(=O)c4ccccc4N3)cc2)c1` (centres unmarked) [Compound H49, 2-(3′-Methoxy-[1,1′-biphenyl]-4-yl)-1,2,3,4-tetrahydro-5H-benzo[e][1,4]diazepin-5-one], the inhibition at 0.05 µM in series [1] was found to be 38.5 ± 4.5%.

`COc1ccc(-c2ccc(C3CNC(=O)c4ccccc4N3)cc2)cc1` (centres unmarked) [Compound H50, 2-(4′-Methoxy-[1,1′-biphenyl]-4-yl)-1,2,3,4-tetrahydro-5H-benzo[e][1,4]diazepin-5-one]: the IC50 in series [1] was 0.0463 µM; in [2], 0.0451 µM; in [5] it was greater than 200 µM; in [6], 130 ± 10.7 µM; in series [8], 125 ± 13.2 µM. In addition, the inhibition at 0.05 µM in [1] was greater than 50%.

The compound `O=C1NCC(c2ccc(-c3cccc(C(F)(F)F)c3)cc2)Nc2ccccc21` (centres unmarked) [Compound H51, 2-(3′-(Trifluoromethyl)-[1,1′-biphenyl]-4-yl)-1,2,3,4-tetrahydro-5H-benzo[e][1,4]diazepin-5-one] gave an inhibition at 0.05 µM in [1] of 48.8 ± 3.7%.

Regarding `CC(C)N1CCN(c2ccc(C3CNC(=O)c4ccccc4N3)cc2)CC1` (centres unmarked) [Compound H53, 2-(4-(4-Isopropylpiperazin-1-yl)phenyl)-1,2,3,4-tetrahydro-5H-benzo[e][1,4]diazepin-5-one], testing at 0.05 µM in series [1] gave an inhibition of 29.9 ± 3.4%.

`CC(=O)N1CCN(c2ccc(C3CNC(=O)c4ccccc4N3)cc2)CC1` (centres unmarked) [Compound H54, 2-(4-(4-Acetylpiperazin-1-yl)phenyl)-1,2,3,4-tetrahydro-5H-benzo[e][1,4]diazepin-5-one] had an inhibition at 0.05 µM in series [1] of 34.6 ± 6.8%.

The compound `C[C@@H]1CN(c2ccc(C3CNC(=O)c4ccccc4N3)cc2)C[C@H](C)O1` (stereo partly drawn) [Compound H55, 2-(4-((2S,6R)-2,6-dimethylmorpholino)phenyl)-1,2,3,4-tetrahydro-5H-benzo[e][1,4]diazepin-5-one] came in with an inhibition at 0.05 µM in series [1] of 39.3 ± 5.2%.

For `O=C(c1cc(Cc2n[nH]c(=O)c3ccccc23)ccc1F)N1CCN(C(=O)C2CC2)CC1` [Olaparib], the CNS penetration result in [10] is on record as “not CNS penetrant”.

Regarding `CNCc1ccc(-c2[nH]c3cc(F)cc4c3c2CCNC4=O)cc1` [Rucaparib, reference compound], the inhibition at 0.05 µM in series [1] turned out to be 98.2 ± 2.7%. In addition, the concentration at 5 min was determined as 170 ± 48.5 ng/g in [3] (brain, read-out: Brain) and 1180 ± 122 ng/mL in series [3] (plasma, read-out: Plasma). Moreover, the concentration at 60 min in series [3] (brain, read-out: Brain) was determined as 13.9 ± 3.78 ng/g; in [3] (plasma, read-out: Plasma) it was 161 ± 60.5 ng/mL. Also, in series [3] (setting [11]), the Kp at 5 min is 0.14 ± 0.04. For the same compound, the Kp at 60 min in [3] (setting [11]) came to 0.1 ± 0.06. Besides, the IC50 in [5] was determined as 34.9 ± 5.2 µM; in series [6], 5.5 ± 2.2 µM; in [8] it was 20.2 ± 3.1 µM. Besides, the CNS penetration entry in series [10] is “could not pass through the blood-brain barrier; also recorded: not CNS penetrant”. In series [7], this compound returned a Capical of 3.39 ± 0.82 µg/mL.

In the case of `Cn1ncnc1[C@H]1c2n[nH]c(=O)c3cc(F)cc(c23)N[C@@H]1c1ccc(F)cc1` [Talazoparib], the CNS penetration result in series [10] was “not CNS penetrant”.
